From patent US11028084B2, “Selective inhibitors of gentotoxic steress-induced IKK/NF-κB pathways” (Max-Delbrück-Centrum für Molekulare Medizin in der …, priority 2016, dated 2021)

Columns and labels:
[1] = biological target: T1, PARP1 (Mus musculus, UniProt P11103); assay: PARP1 enzymatic activity, PAR chain formation after γ-irradiation, MEF cells; assay type: cell-based
T1 construct: endogenous in cells; host or cells: MEF (mouse embryonic fibroblasts)
Description: FIG. 10: (A) MEF cells were pre-treated with the indicated substances, irradiated and cell lysates were used for poly(ADP)-ribose probing using a specific antibody. (B) Experiment performed as described for (A), but using U2OS cells.

[2] = test system: TNFα-induced NF-κB activation; assay: p65 S536 phosphorylation after TNFα stimulation, SDS-PAGE/WB, U2OS cells; assay type: cell-based, human; conditions: 10 μM and 20 μM
Experimental: (§1) FIG. 4: (A) U2OS cells were pre-treated with increasing concentrations of MW01 in triplicates in a 384 well plate. Then, cells were treated with TNFα, fixed and subjected to IF staining of p65. Spatial measurement of p65 cytosolic and nuclear signals was used for the calculation of p65 translocation rates. (B) U2OS cells were pre-treated with MW01 at concentrations of 10 or 20 μM and stimulated with TNFα. Cell lysates were subjected to SDS-PAGE/WB. (C) HEK293 cells were pre-treated with DMSO or MW01 followed by administration of etoposide or TNFα. Cell lysates were used for EMSA.
(§2) For the activation of the canonical NF-κB pathway cells were treated with recombinant human TNFα (10 ng/ml) or IL-1β (10 ng/ml) for 20-30 min at 37° C.

[3] = test system: genotoxic stress-initiated NF-κB signaling cascade; assay: Time course of IκBα, p65, IKK and TAK1 phosphorylation after γ-IR, WB, U2OS cells; assay type: cell-based, human
Description: FIG. 6: (A) U2OS cells were pre-treated with DMSO or MW01 and irradiated. Stimulation of cell with IL-1β served as a positive control for IκBα and p65 phosphorylation. Cells were lysed at indicated time points and used for WB analyses. (B,C) Similar experimental setup as in (A). (D) Experiment as in (A-C), but with other time points analysed and performed with HepG2 cells. PARP1 and LDH serve as loading controls.

[4] = test system: p65 S536 phosphorylation; assay: p65 S536 phosphorylation after γ-IR or etoposide, SDS-PAGE/WB, U2OS cells; assay type: cell-based, human; conditions: γ-IR
Experimental: FIG. 3: (A) U2OS cells were pre-treated with increasing concentrations of MW01 in duplicates in a 384 well plate. Then, cells were treated with etoposide, fixed and subjected to IF of p65. Spatial measurement of p65 cytosolic and nuclear localisation was used for calculation of p65 translocation rates. (B) U2OS cells were pre-treated with DMSO, MW01 and irradiated with γ-IR. After 90 min cells were lysed and subjected to SDS-PAGE/WB and EMSA. (C) Cells were pre-treated with different concentrations of MW01 as indicated, treated with γ-IR (C) or etoposide (D) and subjected to WB or EMSA, respectively. LDH in (C) represents the loading control.
FIG. 14: (A) U2OS cells were pre-treated with different concentrations of olaparib prior to co-treatment with etoposide. Whole cell lysis was performed after 90 min and cleared lysates were used for WB with indicated antibodies. (B) U2OS cells were pre-treated with DMSO, olaparib or the ATM inhibitor Ku55933 and co-treated with etoposide. Cells were harvested after 45 min and subjected to SDS-PAGE/WB. Membranes were stained with the indicated antibodies. The experiment of (B) was performed simultaneously to the experiments of (A) and (E) to control functionality of olaparib in inhibiting PAR chain formation. (C) Densitometrical analyses of (A) and two further independent experiments done as shown in (A). (D) U2OS cells were pre-treated with the substances as indicated prior to irradiation. After 90 min mRNA was isolated, transcribed into cDNA and was used for expression analyses of the indicated genes using quantitative real-time PCR (qRT-PCR). (E) HepG2 cells were pre-treated with the PARP inhibitors olaparib, 3-AB and EB-47 prior to γ-irradiation. […]
After transfer of proteins on PVDF membranes unspecific binding of antibodies was blocked by incubation of membranes in 5% skim milk powder in TBST buffer (or 3% BSA in TBST for phosphorylation-specific antibodies) for 1 h at RT. […] After three times of washing with TBST and once with PBS for 5 min, chemiluminescent photon emission was detected using a CCD camera system (Fusion Solo). […]

[5] = test system: TNFα-induced canonical NF-κB activation; assay: TNFα-induced p65 nuclear translocation (counter screening), U2OS cells; assay type: cell-based, human; conditions: different concentrations
Experimental: as §1, §2
For immunofluorescence staining 0.95×10^5 cells were seeded in 6 well plates onto autoclaved cover slips. Cellular confluency dictated to beginning of the experiment (2-3 days from seeding). After conduction of experiments cells were washed with PBS and fixed with 4% PFA/double-distilled H2O (ddH2O) for 10 min at RT. Following two additional washing steps cells were incubated with a solution containing 0.12% glycine/0.2% saponin in PBS for 10 min and then blocked with a solution containing 10% FCS/0.2% saponin in PBS for 1 h. Primary antibody incubation was performed overnight at 4° C. (1:500 diluted in 0.2% saponin in PBS). […]

T1 sequence (P11103 whole entry): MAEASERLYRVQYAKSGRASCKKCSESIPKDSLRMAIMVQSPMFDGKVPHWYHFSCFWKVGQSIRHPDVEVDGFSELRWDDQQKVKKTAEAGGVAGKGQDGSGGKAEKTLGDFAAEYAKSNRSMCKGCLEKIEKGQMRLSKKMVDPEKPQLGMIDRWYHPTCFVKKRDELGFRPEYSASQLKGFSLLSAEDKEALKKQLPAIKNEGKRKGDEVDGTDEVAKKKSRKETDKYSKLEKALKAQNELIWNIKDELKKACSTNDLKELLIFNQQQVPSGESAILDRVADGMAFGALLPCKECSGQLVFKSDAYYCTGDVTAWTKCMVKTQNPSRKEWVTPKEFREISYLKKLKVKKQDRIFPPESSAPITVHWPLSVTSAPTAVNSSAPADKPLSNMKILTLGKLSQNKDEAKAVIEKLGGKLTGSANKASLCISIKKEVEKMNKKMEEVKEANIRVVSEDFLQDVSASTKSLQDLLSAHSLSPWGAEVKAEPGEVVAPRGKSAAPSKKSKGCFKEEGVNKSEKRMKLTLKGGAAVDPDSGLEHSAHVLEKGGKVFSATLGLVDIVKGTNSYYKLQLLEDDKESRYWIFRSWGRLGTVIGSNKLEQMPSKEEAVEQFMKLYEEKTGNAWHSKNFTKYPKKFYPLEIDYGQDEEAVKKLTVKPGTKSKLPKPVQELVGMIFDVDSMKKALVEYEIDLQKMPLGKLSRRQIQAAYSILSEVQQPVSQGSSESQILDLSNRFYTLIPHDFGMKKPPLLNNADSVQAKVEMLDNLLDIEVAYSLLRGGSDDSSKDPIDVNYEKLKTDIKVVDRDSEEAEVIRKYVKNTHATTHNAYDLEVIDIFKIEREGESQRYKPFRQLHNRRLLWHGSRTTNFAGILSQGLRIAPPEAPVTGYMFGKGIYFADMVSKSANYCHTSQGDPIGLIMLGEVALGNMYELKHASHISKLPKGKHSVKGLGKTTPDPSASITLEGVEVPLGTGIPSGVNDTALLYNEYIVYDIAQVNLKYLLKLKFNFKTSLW

For COc1ccc2c(c1OC)c(=O)n1c3ccc(O)cc3c3ccnc2c31 [MW01, 12-hydroxy-6,7-dimethoxy-8H-benzo[c]indolo[3,2,1-ij][1,5]naphthyridin-8-one], which “PAR chain formation / PARP1 enzymatic activity” value [1] is on record?
Its value is “did not interfere with activation of PARP1 enzymatic activity”.

What about the “p65 S536 phosphorylation after TNFα” value [2] of the same compound?
The value was “no effect”.

And the TAK1 phosphorylation ([3]; 45 and 60 min following irradiation)?
The TAK1 phosphorylation was “strongly inhibited”.

And the IκBα phosphorylation ([3]; 45 min and 60 min after γ-IR)?
The IκBα phosphorylation was “complete inhibition”.

And the “p65 S536 phosphorylation” value ([3]; 45 min and 60 min after γ-IR)?
Its value is “inhibited”.

And the IKK phosphorylation ([3]; 90 min after irradiation)?
The IKK phosphorylation was “abolished”.

And the “p65 S536 phosphorylation following γ-IR” value [4]?
Its value is “concentration dependent inhibition of p65 S536 phosphorylation”.

What about the “effect on p65 nuclear translocation / NF-κB activation after TNFα stimulation” value [5] of the same compound?
The value was “did not interfere with p65 nuclear translocation rates”.
